Measured values: US8927507B2, “Selective glycosidase inhibitors and uses thereof” (priority 2011, dated 2015)

Columns and labels:
human O-GlcNAcase = human O-GlcNAcase (Homo sapiens (Human), UniProt O60502); experiment: Assay for determination of Ki values for inhibition of O-GlcNAcase activity (fluorescence-based hOGA); type: biochemical; conditions: purified human O-GlcNAcase 0.7 nM, 4-Methylumbelliferyl N-acetyl-β-D-glucosaminide substrate, pH 7.0, Cheng-Prusoff
Protocol: Experimental Procedure for Kinetic Analyses: Enzymatic reactions were carried out in a reaction containing 50 mM NaH2PO4, 100 mM NaCl and 0.1% BSA (pH 7.0) using 2 mM 4-Methylumbelliferyl N-acetyl-β-D-glucosaminide dihydrate (Sigma M2133) dissolved in ddH2O, as a substrate. The amount of purified human O-GlcNAcase enzyme used in the reaction was 0.7 nM. Test compound of varying concentrations was added to the enzyme prior to initiation of the reaction. The reaction was performed at room temperature in a 96-well plate and was initiated with the addition of substrate. The production of fluorescent product was measured every 60 sec for 45 min with a Tecan Infinite M200 plate-reader with excitation at 355 nm and emission detected at […], with 4-Methylumbelliferone (Sigma M1381) used to produce a standard curve. The slope of product production was determined for each concentration of compound tested and plotted, using standard curve fitting algorithms for sigmoidal dose response curves. The values for a four parameter logistic curve fit of the data were determined.
K1 values were determined using the Cheng-Prusoff equation; the Km of O-GlcNAcase for substrate was 0.2 mM.

O-GlcNAcase = O-GlcNAcase (Rattus norvegicus (Rat), UniProt Q8VIJ5); experiment: Cell-based ELISA of O-GlcNAcylated protein (RL-2 antibody) in PC-12 cells; conditions: rat PC-12 cells, 24 h treatment, O-GlcNAcylated protein detected with RL-2 antibody
Excerpt: Inhibition of O-GlcNAcase, which removes O-GlcNAc from cellular proteins, results in an increase in the level of O-GlcNAcylated protein in cells. An increase in O-GlcNAcylated protein can be measured by an antibody, such as RL-2, that binds to O-GlcNAcylated protein. The amount of O-GlcNAcylated protein:RL2 antibody interaction can be measured by enzyme linked immunosorbant assay (ELISA) procedures.
A variety of tissue culture cell lines, expressing endogenous levels of O-GlcNAcase, can be utilized; examples include rat PC-12, and human U-87, or SK-N-SH cells. In this assay, rat PC-12 cells were plated in 96-well plates with approximately 10,000 cells/well. […] If desired, the total protein concentration of samples was determined using 20 μl of the sample using the BCA method.
The ELISA portion of the assay was performed in a black Maxisorp 96-well plate that was coated overnight at 4° C. with 100 μL/well of the cell lysate (1:10 dilution of the lysate with PBS containing protease inhibitors, phosphatase inhibitors, and PMSF). […] The detection reaction was incubated for 15 minutes at room temperature and then read with excitation at 530 nm and emission at 590 nm.
The amount of O-GlcNAcylated protein, as detected by the ELISA assay, was plotted for each concentration of test compound using standard curve fitting algorithms for sigmoidal dose response curves. […]

Sequence of human O-GlcNAcase (O60502 whole entry): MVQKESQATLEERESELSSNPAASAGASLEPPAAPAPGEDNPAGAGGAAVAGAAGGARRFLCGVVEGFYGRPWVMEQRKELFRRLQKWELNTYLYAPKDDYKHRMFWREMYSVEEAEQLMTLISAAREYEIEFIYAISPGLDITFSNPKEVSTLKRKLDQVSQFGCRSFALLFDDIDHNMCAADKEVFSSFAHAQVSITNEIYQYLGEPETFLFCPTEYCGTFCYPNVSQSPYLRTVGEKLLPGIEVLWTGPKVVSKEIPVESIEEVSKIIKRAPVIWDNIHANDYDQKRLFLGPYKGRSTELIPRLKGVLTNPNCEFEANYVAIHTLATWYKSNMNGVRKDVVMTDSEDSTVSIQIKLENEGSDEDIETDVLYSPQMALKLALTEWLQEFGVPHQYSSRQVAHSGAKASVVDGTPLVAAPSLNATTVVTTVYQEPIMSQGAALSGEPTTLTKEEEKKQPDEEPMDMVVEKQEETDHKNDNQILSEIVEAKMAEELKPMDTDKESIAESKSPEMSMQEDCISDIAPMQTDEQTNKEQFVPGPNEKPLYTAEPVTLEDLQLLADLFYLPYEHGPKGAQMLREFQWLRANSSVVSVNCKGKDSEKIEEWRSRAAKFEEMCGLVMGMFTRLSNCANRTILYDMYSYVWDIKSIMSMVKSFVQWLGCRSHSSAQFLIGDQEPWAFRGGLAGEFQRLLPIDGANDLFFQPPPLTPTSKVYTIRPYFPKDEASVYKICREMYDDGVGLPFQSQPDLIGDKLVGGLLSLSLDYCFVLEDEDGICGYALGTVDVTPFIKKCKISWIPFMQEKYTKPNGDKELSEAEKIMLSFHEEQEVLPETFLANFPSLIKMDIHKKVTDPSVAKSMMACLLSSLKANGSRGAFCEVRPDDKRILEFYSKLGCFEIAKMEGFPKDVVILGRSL
Sequence of O-GlcNAcase (Q8VIJ5 whole entry): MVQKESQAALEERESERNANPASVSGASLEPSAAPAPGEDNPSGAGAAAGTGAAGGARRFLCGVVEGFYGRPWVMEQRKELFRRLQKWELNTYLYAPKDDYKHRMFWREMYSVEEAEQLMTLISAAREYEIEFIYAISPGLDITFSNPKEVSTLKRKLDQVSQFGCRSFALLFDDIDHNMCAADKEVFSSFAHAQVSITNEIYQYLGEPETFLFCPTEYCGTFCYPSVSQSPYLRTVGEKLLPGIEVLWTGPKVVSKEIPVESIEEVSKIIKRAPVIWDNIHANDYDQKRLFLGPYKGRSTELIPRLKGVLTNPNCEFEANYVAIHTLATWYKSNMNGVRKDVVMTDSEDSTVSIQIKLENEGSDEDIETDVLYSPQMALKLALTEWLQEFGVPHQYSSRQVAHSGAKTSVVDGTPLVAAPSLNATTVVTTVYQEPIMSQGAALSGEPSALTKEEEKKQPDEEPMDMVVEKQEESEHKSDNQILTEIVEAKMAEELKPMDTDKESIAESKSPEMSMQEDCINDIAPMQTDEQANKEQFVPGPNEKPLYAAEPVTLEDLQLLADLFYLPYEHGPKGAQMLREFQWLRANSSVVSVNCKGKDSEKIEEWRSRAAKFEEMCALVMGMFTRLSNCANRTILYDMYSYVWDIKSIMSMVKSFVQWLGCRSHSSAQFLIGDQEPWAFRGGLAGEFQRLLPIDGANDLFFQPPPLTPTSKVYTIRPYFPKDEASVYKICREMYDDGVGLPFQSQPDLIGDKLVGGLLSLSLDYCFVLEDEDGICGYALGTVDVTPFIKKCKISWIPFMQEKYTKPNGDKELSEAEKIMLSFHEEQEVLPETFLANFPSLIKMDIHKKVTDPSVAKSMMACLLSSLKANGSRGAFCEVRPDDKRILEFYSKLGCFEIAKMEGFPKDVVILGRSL

Ki (human O-GlcNAcase) [nM]	EC50 (O-GlcNAcase) [nM]	Structure (SMILES)
74		CCC(=O)NC1=N[C@@H]2[C@@H](O)[C@H](O)[C@@H](CO)O[C@@H]2S1 [Example 22, N-((3aR,5R,6S,7R,7aR)-6,7-dihydroxy-5-(hydroxymethyl)-5,6,7,7a-tetrahydro-3aH-pyrano[3,2-d]thiazol-2-yl)propionamide]
2.8	152	C=CCN(C)C1=N[C@@H]2[C@@H](O)[C@H](O)[C@@H](CO)O[C@@H]2S1 [Example 16, (3aR,5R,6S,7R,7aR)-2-(allyl(methyl)amino)-5-(hydroxymethyl)-5,6,7,7a-tetrahydro-3aH-pyrano[3,2-d]thiazole-6,7-diol]
15		OC[C@H]1O[C@@H]2SC(NCC3CC3)=N[C@@H]2[C@@H](O)[C@@H]1O [Example 11, (3aR,5R,6S,7R,7aR)-2-((cyclopropylmethyl)amino)-5-(hydroxymethyl)-5,6,7,7a-tetrahydro-3aH-pyrano[3,2-d]thiazole-6,7-diol]
15	196	CCCN(C)C1=N[C@@H]2[C@@H](O)[C@H](O)[C@@H](CO)O[C@@H]2S1 [Example 15, (3aR,5R,6S,7R,7aR)-5-(hydroxymethyl)-2-(methyl(propyl)amino)-5,6,7,7a-tetrahydro-3aH-pyrano[3,2-d]thiazole-6,7-diol]
11		CON(C)C1=N[C@@H]2[C@@H](O)[C@H](O)[C@@H](CO)O[C@@H]2S1 [Example 18, (3aR,5R,6S,7R,7aR)-5-(hydroxymethyl)-2-(methoxy(methyl)amino)-5,6,7,7a-tetrahydro-3aH-pyrano[3,2-d]thiazole-6,7-diol]
22		CCNC(=O)NC1=N[C@@H]2[C@@H](O)[C@H](O)[C@@H](CO)O[C@@H]2S1 [Example 29, 1-((3aR,5R,6S,7R,7aR)-6,7-dihydroxy-5-(hydroxymethyl)-5,6,7,7a-tetrahydro-3aH-pyrano[3,2-d]thiazol-2-yl)-3-ethylurea]
4.4		OC[C@H]1O[C@@H]2SC(NCCC3CC3)=N[C@@H]2[C@@H](O)[C@@H]1O [Example 3, (3aR,5R,6S,7R,7aR)-2-(2-Cyclopropylethylamino)-5-(hydroxymethyl)-5,6,7,7a-tetrahydro-3aH-pyrano[3,2-d]thiazole-6,7-diol]
15		OC[C@H]1O[C@@H]2SC(NCCCF)=N[C@@H]2[C@@H](O)[C@@H]1O [Example 2, (3aR,5R,6S,7R,7aR)-2-((3-fluoropropyl)amino)-5-(hydroxymethyl)-5,6,7,7a-tetrahydro-3aH-pyrano[3,2-d]thiazole-6,7-diol]
